The results in this text go back to ChEMBL document CHEMBL5726255, “Biaryl acyl-sulfonamide compounds as sodium channel inhibitors” (2017).

The IC50 is the midpoint of a concentration-inhibition curve.

Assay [1] addresses Sodium channel protein type 9 subunit alpha (Homo sapiens, UniProt Q15858). As to the kind of experiment: Nav 1.7 In Vitro Patch Express (PX) Assay: HEK 293 cells stably transfected with human Nav1.7 were recorded in whole cell voltage clamp mode with the PatchXpress automated electrophysiology system (Molecular Devices, LLC, Sunnyvale, Calif.). Compound effects were measured on a partially inactivated state of the sodium channel. Cells were clamped to a holding potential yielding 20 to 50% inactivation. To elicit sodium current, channels were activated by pulsing to −10 mV for 20 msec. This voltage protocol was repeated at a rate of 0.1 Hz throughout the experiment. A single concentration of test compound was applied to cells for a duration of 3 minutes. Peak sodium current was measured at the end of the compound addition period to determine percent inhibition. Three to five cells were tested per concentration, and IC50 curves were fitted to percent inhibition as a function of concentration.

The target in assay [2] is Sodium channel protein type 5 subunit alpha (Homo sapiens, UniProt Q14524). As to the kind of experiment: Nav 1.5 In Vitro PX Assay: 293 cells stably transfected with human Nav 1.5 were recorded in whole cell voltage clamp mode with the PatchXpress automated electrophysiology system according the manufacturer's specifications (Molecular Devices, LLC, Sunnyvale, Calif.). Cells were held at a holding potential of −50 mV to inactivate sodium channels. To elicit sodium currents the voltage was changed to ….
Sequence of Sodium channel protein type 5 subunit alpha (Q14524 whole entry): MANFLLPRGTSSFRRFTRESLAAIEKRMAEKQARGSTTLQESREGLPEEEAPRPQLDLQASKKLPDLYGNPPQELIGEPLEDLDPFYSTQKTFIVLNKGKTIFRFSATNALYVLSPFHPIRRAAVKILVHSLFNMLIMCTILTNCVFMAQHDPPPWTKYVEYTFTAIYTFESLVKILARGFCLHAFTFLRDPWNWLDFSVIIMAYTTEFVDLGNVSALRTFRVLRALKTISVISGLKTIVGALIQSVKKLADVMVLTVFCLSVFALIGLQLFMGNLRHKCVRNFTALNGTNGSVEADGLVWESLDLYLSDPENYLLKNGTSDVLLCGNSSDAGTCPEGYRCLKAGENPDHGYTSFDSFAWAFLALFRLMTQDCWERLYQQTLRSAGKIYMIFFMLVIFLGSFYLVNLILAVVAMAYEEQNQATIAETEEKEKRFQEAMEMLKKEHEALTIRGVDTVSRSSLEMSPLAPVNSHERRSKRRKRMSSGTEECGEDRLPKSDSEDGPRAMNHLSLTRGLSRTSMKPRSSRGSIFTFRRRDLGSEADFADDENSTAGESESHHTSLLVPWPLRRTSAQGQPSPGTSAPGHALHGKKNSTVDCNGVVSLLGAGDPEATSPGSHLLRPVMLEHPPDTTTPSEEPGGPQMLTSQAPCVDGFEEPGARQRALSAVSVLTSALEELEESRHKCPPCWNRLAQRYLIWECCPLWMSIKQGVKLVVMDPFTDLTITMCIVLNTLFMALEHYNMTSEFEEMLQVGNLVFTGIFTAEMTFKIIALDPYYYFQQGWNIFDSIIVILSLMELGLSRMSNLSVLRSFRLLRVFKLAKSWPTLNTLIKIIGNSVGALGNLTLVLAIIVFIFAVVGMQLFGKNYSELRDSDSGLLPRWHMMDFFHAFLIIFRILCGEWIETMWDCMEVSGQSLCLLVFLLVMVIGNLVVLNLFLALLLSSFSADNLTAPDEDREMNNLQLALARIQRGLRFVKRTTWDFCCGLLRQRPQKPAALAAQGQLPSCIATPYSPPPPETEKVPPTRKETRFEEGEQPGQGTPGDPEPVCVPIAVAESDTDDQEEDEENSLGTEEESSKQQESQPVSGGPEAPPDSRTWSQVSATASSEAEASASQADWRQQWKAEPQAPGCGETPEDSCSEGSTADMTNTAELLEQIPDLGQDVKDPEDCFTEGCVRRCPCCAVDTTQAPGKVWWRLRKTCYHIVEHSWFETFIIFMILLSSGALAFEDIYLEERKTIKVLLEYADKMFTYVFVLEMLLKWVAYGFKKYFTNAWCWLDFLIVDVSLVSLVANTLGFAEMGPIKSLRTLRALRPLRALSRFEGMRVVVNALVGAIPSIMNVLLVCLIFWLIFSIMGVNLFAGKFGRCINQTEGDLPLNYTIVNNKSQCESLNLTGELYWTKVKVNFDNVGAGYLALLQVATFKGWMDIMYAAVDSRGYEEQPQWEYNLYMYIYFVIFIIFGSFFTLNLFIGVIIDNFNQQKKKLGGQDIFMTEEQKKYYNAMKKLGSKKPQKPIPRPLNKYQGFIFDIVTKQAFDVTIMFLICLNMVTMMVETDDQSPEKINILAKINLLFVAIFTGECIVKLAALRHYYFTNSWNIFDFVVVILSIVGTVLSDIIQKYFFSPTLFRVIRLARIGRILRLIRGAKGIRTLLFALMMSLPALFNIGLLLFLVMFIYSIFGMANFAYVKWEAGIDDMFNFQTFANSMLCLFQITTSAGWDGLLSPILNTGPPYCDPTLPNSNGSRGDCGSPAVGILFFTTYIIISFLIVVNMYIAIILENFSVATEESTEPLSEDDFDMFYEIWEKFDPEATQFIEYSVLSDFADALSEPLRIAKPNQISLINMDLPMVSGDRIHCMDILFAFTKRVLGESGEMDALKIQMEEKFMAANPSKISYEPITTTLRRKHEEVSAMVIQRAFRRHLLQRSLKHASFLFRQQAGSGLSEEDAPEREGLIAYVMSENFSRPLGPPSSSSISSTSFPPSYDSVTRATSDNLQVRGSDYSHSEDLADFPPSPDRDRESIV
Description: Nav 1.5 In Vitro PX Assay: 293 cells stably transfected with human Nav 1.5 were recorded in whole cell voltage clamp mode with the PatchXpress automated electrophysiology system according the manufacturer's specifications (Molecular Devices, LLC, Sunnyvale, Calif.). Cells were held at a holding potential of −50 mV to inactivate sodium channels. To elicit sodium currents the voltage was changed to −120 mV to recover a portion of the channels, followed by delivery of test pulses of 20 msec duration to 0 mV, at 0.1 Hz. A single concentration of test compound was applied to cells for a duration of 5 minutes. Peak sodium current was measured at the end of the compound addition period to determine percent inhibition. A minimum of two cells were tested per concentration.

Molecules are shown by their SMILES. Some results are limits rather than exact numbers.

Sequence of Sodium channel protein type 9 subunit alpha (Q15858 whole entry): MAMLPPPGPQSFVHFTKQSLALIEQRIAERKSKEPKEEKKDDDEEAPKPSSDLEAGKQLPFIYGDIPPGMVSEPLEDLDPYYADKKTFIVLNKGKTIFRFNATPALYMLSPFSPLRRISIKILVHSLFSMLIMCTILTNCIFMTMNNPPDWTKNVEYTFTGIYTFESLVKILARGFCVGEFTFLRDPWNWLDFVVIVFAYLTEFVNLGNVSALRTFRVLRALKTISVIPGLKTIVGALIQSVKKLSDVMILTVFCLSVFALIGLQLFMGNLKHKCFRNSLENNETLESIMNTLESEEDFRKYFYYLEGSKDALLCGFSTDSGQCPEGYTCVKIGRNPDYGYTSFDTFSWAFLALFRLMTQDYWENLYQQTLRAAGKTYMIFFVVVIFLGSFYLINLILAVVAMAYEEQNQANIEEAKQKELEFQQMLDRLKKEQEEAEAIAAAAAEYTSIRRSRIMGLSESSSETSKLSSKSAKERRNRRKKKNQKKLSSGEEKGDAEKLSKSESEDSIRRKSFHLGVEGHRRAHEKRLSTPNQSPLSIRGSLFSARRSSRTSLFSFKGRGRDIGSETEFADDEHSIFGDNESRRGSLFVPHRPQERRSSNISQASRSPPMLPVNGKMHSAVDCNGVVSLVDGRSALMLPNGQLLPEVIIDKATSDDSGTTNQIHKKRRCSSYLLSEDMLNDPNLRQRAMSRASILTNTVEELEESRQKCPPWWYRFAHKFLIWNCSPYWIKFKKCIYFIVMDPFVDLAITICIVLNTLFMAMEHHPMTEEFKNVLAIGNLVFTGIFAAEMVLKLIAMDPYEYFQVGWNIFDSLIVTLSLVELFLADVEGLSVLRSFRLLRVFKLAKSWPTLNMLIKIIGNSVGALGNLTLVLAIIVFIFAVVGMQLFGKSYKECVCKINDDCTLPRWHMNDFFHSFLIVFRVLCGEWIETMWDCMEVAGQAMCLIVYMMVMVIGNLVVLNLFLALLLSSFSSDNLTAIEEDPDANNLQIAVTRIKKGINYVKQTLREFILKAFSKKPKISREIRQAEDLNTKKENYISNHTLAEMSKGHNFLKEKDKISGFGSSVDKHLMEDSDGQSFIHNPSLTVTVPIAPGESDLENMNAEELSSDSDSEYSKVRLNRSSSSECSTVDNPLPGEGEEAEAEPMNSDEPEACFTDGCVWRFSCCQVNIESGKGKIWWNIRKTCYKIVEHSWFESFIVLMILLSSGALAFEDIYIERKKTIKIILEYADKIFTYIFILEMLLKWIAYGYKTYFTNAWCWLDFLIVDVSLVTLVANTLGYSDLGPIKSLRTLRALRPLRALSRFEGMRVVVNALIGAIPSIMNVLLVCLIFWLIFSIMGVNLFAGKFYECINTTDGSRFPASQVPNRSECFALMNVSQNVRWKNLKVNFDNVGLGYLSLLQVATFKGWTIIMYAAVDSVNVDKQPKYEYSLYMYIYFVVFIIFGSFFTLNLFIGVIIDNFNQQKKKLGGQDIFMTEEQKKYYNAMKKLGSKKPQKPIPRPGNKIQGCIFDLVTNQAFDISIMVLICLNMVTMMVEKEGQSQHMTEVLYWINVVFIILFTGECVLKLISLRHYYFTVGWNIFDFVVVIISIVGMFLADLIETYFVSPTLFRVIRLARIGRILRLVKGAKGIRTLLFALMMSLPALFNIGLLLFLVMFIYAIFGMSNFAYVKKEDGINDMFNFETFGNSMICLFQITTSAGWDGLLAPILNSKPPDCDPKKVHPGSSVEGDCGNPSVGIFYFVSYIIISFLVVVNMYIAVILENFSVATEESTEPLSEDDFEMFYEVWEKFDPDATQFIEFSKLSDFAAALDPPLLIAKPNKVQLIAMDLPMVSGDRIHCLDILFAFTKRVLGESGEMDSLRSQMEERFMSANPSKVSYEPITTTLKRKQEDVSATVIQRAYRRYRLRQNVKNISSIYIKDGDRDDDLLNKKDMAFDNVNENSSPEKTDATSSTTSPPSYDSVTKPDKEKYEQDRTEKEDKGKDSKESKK

With `COc1cc(C(=O)NS(C)(=O)=O)ccc1-c1cnc(Oc2c(Cl)ccc(Cl)c2C)c(C#N)c1`, in assay [1], 17.2 nM corresponded to half-maximal inhibition (IC50). In turn, `Cc1cc(C(=O)NS(C)(=O)=O)c(F)cc1-c1cnc(O[C@H](C)c2cc(Cl)ccc2Cl)c(Cl)c1` returned an IC50 in assay [1] of 46.2 nM. In the case of `Cc1cc(C(=O)NS(=O)(=O)C2CCC2)c(F)cc1-c1cnc(OC2CCC2)c(Cl)c1`, the IC50 in assay [1] was 73.9 nM; in assay [2], more than 4900 nM. For `CC(C)COc1ncc(-c2cc(F)c(C(=O)NS(C)(=O)=O)cc2F)cc1Br`, half-maximal inhibition in assay [1] (IC50) required 559 nM. `CS(=O)(=O)NC(=O)c1cc(F)c(-c2cnc(Oc3ccc(F)c4c3CCC4)c(Cl)c2)cc1F` came in with an IC50 in assay [1] of 96.5 nM.
